Test results: doi:10.1101/2025.09.30.679521v1, “Crystallographic characterisation and development of bi-substrate inhibitors of coronavirus nsp14 methyltransferase” (biorxiv, 2025)
≈ marks a conversion by molar mass, not a printed value. Read-outs that look alike come from different tables or passages of the source.

Legend:
[1] = biological target: T1, SARS-CoV-2 nsp14 (Severe acute respiratory syndrome coronavirus 2, UniProt P0DTD1); experiment: RapidFire MS methyltransferase assay; type: biochemical; conditions: read-out: IC50
T1 construct: gene rep
From the text: RapidFire MS methyltransferase assay on SARS-CoV-2 nsp14

[2] = physchem
[3] = biological target: HCoV-NL63 nsp14 (Human coronavirus NL63, UniProt P0C6X5); experiment: RapidFire MS methyltransferase assay; type: biochemical; conditions: read-out: IC50
From the text: RapidFire MS methyltransferase assay on HCoV-NL63 nsp14

[4] = biological target: T2, human RNMT (Homo sapiens, UniProt O43148); experiment: RNMT methyltransferase assay (Gray et al.); type: biochemical
From the text: RNMT methyltransferase assay (Gray et al.) on human RNMT

[5] = biological target: T3, HCoV-229E nsp14 (Human coronavirus 229E, UniProt P0C6X1); experiment: RapidFire MS methyltransferase assay; type: biochemical; conditions: read-out: IC50
T3 construct: gene rep
From the text: RapidFire MS methyltransferase assay on HCoV-229E nsp14

[6] = in vitro; set-up: MDCK permeability; conditions: dog, MDCK
[7] = physchem; remark: listed apart in the source
[8] = in vitro; set-up: MDCK permeability; conditions: dog, MDCK; remark: listed apart in the source
[9] = in vitro; set-up: mouse liver microsomal stability; conditions: liver microsomes; Mouse liver microsomes; read-out: Mouse liver Mic T1/2 / min
From the text: We initiated our structure-activity relationship (SAR) studies by investigating various replacements for the benzothiazole group, compounds 2-17, Table 1. […] Relatively flat SAR is observed across this subset of compounds, indeed a 6,5 or 6,6 aromatic system with the appropriate connectivity as compound 1 display relatively similar potencies. […] In general, the mouse microsomal clearance was rather low for this set of molecules, with no significant instabilities introduced, with perhaps the exception of compound 4. With no significant advantages in either potency or mouse microsomal clearance (Table S2) identified for this subset, the benzothiazole was taken forward into subsequent SAR studies. Table 2. Enzymatic inhibition against SARS-CoV-2 nsp14, human RNMT, CHI-logD and mouse microsomal stability.

[10] = physchem; set-up: solubility
From the text: Table 5. Selected compounds with cellular potency. The apparent EC50 values in the cytopathic effect assay are shown, along with the toxicity effect CC50

[11] = tested on: SARS-CoV-2; experiment: microbe, parasite or virus in culture; set-up: species or system Vero E6; antiviral cytopathic effect assay with SARS-CoV-2 in Vero E6 cells; conditions: Severe acute respiratory syndrome coronavirus 2, Vero C1008; read-out: CPE assay EC50 /
[12] = in vitro; set-up: cytotoxicity alongside the cytopathic effect assay in Vero E6 cells; conditions: african green monkey, vero e6 cells; read-out: CPE assay CC50 /
From the text: This may be due to the increased rigidity of the alkene linkage and a lower entropic penalty upon binding. As a matched pair to the previously reported compounds 32 and 34, we selected potent and stable compound 33 and 40, with the same change of adenosine base, Base A, to Base B and measure the antiviral activity. […] One potential reason for this disparity may be attributed to the differing experimental conditions used in the two assays and requires further investigation. […] Therefore, consistent with the body of the literature, we observed no significant antiviral activity against SARS-CoV-2 for this class of compounds. We hypothesise that as the compounds bind in both the SAM and the RNA pocket of nsp14 and are therefore competitive with both substrates, in the cellular context there is a significant competition with intracellular SAM/SAH and the viral RNA, which is likely present at a higher concentration than used in the biochemical assay. The concentration of SAM used in the SARS-CoV-2 nsp14 assay is 1.0 µM and although measurements of SAM or SAH concentrations in Vero E6 cells haven’t been reported, others have reported intracellular concentrations of SAM of 354 µM in other cell lines.[30] The concentration of the viral RNA substrate in cellulo and increased effective concentrations from the proximity of other nsp proteins involved in viral RNA production may also play a role that is further not captured in the bioche Table 5. Selected compounds with cellular potency. The apparent EC50 values in the cytopathic effect assay are shown, along with the toxicity effect CC50

[13] = physchem; remark: listed apart in the source
[14] = tested on: SARS-CoV-2; experiment: microbe, parasite or virus in culture; set-up: species or system Vero E6; antiviral cytopathic effect assay with SARS-CoV-2 in Vero E6 cells; conditions: Severe acute respiratory syndrome coronavirus 2, Vero C1008; read-out: CPE assay EC50 /; remark: listed apart in the source
[15] = biological target: T2, human RNMT; experiment: biochemical; set-up: human RNMT methyltransferase inhibition
[16] = biological target: T4, MERS-CoV nsp14 (Betacoronavirus England 1, UniProt K9N7C7); experiment: biochemical
T4 construct: gene rep

[17] = SAM and RNA cap substrate at KM (SAM 1.0 µM)

T3 sequence (P0C6X1 5593-6110): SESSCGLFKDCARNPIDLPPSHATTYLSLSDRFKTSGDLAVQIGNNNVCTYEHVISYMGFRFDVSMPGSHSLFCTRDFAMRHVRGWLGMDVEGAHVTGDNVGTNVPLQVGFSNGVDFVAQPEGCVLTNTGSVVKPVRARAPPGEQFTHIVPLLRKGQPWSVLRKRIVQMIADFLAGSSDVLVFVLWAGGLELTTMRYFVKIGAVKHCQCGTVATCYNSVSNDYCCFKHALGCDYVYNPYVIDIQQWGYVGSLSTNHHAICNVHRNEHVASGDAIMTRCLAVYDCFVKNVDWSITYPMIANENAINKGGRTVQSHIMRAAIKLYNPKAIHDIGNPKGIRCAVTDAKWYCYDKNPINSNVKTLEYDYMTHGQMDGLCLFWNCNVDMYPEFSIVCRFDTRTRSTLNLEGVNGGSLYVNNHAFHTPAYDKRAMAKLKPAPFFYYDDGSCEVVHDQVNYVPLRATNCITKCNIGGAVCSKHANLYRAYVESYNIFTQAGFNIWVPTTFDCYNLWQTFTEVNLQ
Chain of HCoV-NL63 nsp14 (P0C6X5 5568-6085): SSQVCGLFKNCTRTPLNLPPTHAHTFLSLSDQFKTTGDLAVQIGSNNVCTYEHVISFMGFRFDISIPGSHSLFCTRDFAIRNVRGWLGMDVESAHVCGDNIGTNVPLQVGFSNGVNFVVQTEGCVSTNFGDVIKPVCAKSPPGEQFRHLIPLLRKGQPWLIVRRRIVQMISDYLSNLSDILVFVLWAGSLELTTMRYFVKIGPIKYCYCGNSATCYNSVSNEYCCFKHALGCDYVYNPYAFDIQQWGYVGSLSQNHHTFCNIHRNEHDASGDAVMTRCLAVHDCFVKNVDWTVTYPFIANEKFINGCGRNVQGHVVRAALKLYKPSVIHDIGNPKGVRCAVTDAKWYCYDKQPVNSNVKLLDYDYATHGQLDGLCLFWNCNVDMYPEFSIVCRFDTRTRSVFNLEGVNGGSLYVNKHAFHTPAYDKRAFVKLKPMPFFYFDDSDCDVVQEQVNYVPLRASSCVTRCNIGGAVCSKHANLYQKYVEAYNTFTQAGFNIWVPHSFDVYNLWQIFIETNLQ
T2 sequence (O43148 whole entry): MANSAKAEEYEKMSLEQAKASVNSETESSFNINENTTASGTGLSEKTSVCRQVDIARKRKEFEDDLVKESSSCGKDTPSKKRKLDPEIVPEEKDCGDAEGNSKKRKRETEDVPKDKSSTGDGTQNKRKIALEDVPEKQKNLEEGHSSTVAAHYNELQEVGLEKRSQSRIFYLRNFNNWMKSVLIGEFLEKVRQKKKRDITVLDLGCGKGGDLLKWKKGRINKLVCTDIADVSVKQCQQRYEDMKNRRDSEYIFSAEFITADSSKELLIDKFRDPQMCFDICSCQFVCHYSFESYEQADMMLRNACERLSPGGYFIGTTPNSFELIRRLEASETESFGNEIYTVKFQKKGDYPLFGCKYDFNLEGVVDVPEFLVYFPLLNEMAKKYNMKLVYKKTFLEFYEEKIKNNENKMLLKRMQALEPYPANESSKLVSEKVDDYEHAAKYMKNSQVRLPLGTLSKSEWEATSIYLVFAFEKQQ
T4 sequence (K9N7C7 5909-6432 limits assumed): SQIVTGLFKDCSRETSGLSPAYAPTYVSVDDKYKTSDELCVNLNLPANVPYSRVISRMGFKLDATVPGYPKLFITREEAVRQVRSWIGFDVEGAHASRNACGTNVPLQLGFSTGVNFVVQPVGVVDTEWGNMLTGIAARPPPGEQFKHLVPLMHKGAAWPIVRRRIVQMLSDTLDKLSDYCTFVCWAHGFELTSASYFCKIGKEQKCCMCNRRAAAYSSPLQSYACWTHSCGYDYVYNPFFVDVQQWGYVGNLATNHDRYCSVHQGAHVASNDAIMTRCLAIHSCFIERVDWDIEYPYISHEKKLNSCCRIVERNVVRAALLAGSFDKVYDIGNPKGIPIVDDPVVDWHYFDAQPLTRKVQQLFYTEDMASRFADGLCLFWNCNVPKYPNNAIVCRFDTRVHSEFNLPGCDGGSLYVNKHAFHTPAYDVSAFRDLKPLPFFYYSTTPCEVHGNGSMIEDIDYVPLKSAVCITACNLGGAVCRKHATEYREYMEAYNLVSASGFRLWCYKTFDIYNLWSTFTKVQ

| Structure (SMILES) | IC50 [1] [nM] | logD [2] | IC50 [3] [nM] | IC50 [4] [nM] | IC50 [5] [nM] | half-life [9] [min] | further results |
| --- | --- | --- | --- | --- | --- | --- | --- |
| CNc1ncnc2c1ncn2[C@@H]1O[C@H](CSc2nc3ccccc3s2)[C@@H](O)[C@H]1O [compound 18] | 2100 ± 200 | 1.3 | – | – | – | – | – |
| OC1C(CSc2nc3ccccc3s2)OC(n2cnc3c(NC4CCCC4)ncnc32)C1O (stereo not drawn) [compound 20] | – | 2.5 | – | – | – | – | IC50 [1, 17]: > 100000 nM |
| Nc1ncnc2c1ncn2[C@@H]1O[C@H](CNS(=O)(=O)c2ccc3ccccc3c2)[C@@H](O)[C@H]1O [compound 32] | 130 ± 40 | – | 530 ± 120 | > 100000 | 300 ± 10 | – | Papp [6]: 1.2 ×10⁻⁶ cm/s; logD [7]: 1.5 |
| Nc1ncnc2c1ncn2[C@@H]1O[C@H](CNc2nc3ccccc3s2)[C@@H](O)[C@H]1O [compound 24] | > 100000 | 0.7 | – | 54600 | – | – | – |
| Nc1ncnn2c([C@@H]3O[C@H](/C=C/c4nc5ccccc5s4)[C@@H](O)[C@H]3O)ccc12 [compound 40] | 83 ± 100 | – | 13 ± 6 | – | 49 ± 1 | – | Papp [8]: 12.8 ×10⁻⁶ cm/s; logD [7]: 1.5 |
| CN(C)c1ncnc2c1ncn2[C@@H]1O[C@H](CSc2nc3ccccc3s2)[C@@H](O)[C@H]1O [compound 19] | – | 1.8 | – | – | – | – | IC50 [1, 17]: > 100000 nM |
| Nc1ncnc2c1ncn2[C@@H]1O[C@H](/C=C/c2nc3ccccc3s2)[C@@H](O)[C@H]1O [compound 33, (2R,3R,4S,5R)-2-(6-Aminopurin-9-yl)-5-[(E)-2-(1,3-benzothiazol-2-yl)vinyl]tetrahydrofuran-3,4-diol] | – | – | – | – | – | > 30 | solubility [10]: 18.2 µM (≈ 7.22 µg/mL); EC50 [11]: 8700 nM; CC50 [12]: 21000 nM |
| Nc1ncnc2c1ncn2[C@@H]1O[C@H](CSc2ccc3ccccc3c2)[C@@H](O)[C@H]1O [compound 6] | 310 ± 120 | – | 230 ± 20 | > 100000 | 470 ± 60 | 26.9 | logD [13]: 1.8 |
| Nc1ncnn2c([C@@H]3O[C@H](CNS(=O)(=O)c4ccc5ccccc5c4)[C@@H](O)[C@H]3O)ccc12 [compound 34, N-[[(2R,3S,4R,5S)-5-(4-Aminopyrrolo[2,1-f][1,2,4]triazin-7-yl)-3,4-dihydroxy-tetrahydrofuran-2-yl]methyl]naphthalene-2-sulfonamide] | – | – | – | – | – | 9.9 | solubility [10]: 226 µM (≈ 103 µg/mL); EC50 [14]: 30000 nM; CC50 [12]: > 100000 nM |
| Nc1ncnc2c1ncn2[C@@H]1O[C@H](CNS(=O)(=O)c2ccc3ccccc3c2)[C@@H](O)[C@H]1O [compound 32, N-[[(2R,3S,4R,5R)-5-(6-Aminopurin-9-yl)-3,4-dihydroxy-tetrahydrofuran-2-yl]methyl]naphthalene-2-sulfonamide] | – | – | – | – | – | > 30 | solubility [10]: 213 µM (≈ 97.2 µg/mL); EC50 [11]: > 100000 nM; CC50 [12]: > 100000 nM |
| Nc1ncnc2c1ncn2[C@@H]1O[C@H](CSc2ccc3cccnc3c2)[C@@H](O)[C@H]1O [compound 10] | 360 ± 110 | – | 170 ± 40 | > 100000 | 580 ± 100 | > 30 | logD [13]: 0.6 |
| Nc1ncnc2c1ncn2[C@@H]1O[C@H](/C=C/c2nc3ccccc3s2)[C@@H](O)[C@H]1O [compound 33] | 36 ± 10 | – | 17 ± 1 | > 100000 | 51 ± 9 | – | Papp [6]: 4.9 ×10⁻⁶ cm/s; logD [7]: 1.3 |
| Nc1ncnc2c1ncn2[C@@H]1O[C@H](CCc2nc3ccccc3s2)[C@@H](O)[C@H]1O [compound 25] | 310 ± 70 | 1 | – | – | – | > 30 | IC50 [15]: > 100000 nM |
| Nc1ncnc2c1ncn2[C@@H]1O[C@H](COc2nc3ccccc3s2)[C@@H](O)[C@H]1O [compound 23] | > 100000 | 0.5 | – | – | – | – | IC50 [15]: > 100000 nM |
| Nc1ncnn2c([C@@H]3O[C@H](/C=C/c4nc5ccccc5s4)[C@@H](O)[C@H]3O)ccc12 [compound 40, (2S,3R,4S,5R)-2-(4-aminopyrrolo[2,1-f][1,2,4]triazin-7-yl)-5-[(E)-2-(1,3-benzothiazol-2-yl)vinyl]tetrahydrofuran-3,4-diol] | – | – | – | – | – | > 30 | solubility [10]: 4.7 µM (≈ 1.86 µg/mL); EC50 [14]: > 10000 nM; CC50 [12]: > 10000 nM |
| Nc1ncnc2c1ncn2[C@@H]1C[C@H](CSc2nc3ccccc3s2)[C@@H](O)[C@H]1O [compound 26] | 53 ± 30 | – | 8 ± 3 | > 100000 | 21 ± 4 | > 30 | IC50 [16]: 730 nM; logD [7]: 1.5 |
| Nc1ncnn2c([C@@H]3O[C@H](CNS(=O)(=O)c4ccc5ccccc5c4)[C@@H](O)[C@H]3O)ccc12 [compound 34] | 170 ± 30 | – | 760 ± 310 | 27700 | 320 ± 10 | – | Papp [8]: 1 ×10⁻⁶ cm/s; logD [7]: 1.6 |
| CC(C)Nc1ncnc2c1ncn2[C@@H]1O[C@H](CSc2nc3ccccc3s2)[C@@H](O)[C@H]1O [compound 21] | > 100000 | 2.1 | – | – | – | – | IC50 [15]: > 100000 nM |
| O[C@@H]1[C@H](O)[C@@H](CSc2nc3ccccc3s2)O[C@H]1n1cnc2c(NC3COC3)ncnc21 [compound 22] | – | 1.4 | – | – | – | – | – |
| Nc1ncnc2c1ncn2[C@@H]1O[C@H](CSc2nc3ccccc3s2)[C@@H](O)[C@H]1O [compound 1] | 420 ± 300 | – | 190 ± 30 | > 100000 | 310 ± 8 | > 30 | logD [13]: 1.2 |
